# In ChEMBL document CHEMBL1155857, “Benzodiazepine ligands can act as allosteric modulators of the Type 1 cholecystokinin receptor” (Bioorg Med Chem Lett, 2008):
# Biological target: T1, Cholecystokinin receptor type A (Rattus norvegicus) (UniProt P30551)
# T1 sequence (whole entry): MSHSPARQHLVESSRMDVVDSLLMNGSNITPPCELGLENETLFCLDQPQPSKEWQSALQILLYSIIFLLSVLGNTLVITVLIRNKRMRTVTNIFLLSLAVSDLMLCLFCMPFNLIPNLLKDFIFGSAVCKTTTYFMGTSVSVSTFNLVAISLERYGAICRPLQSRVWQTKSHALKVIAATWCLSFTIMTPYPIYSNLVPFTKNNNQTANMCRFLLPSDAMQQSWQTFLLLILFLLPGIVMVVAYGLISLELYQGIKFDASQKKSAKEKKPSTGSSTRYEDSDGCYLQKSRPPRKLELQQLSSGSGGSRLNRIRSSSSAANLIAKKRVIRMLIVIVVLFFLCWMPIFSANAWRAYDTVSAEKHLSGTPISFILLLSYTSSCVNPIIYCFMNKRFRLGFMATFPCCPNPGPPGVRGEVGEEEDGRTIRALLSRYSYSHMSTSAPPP
# Assay: Displacement of [125I]CCK from rat CCK1 receptor expressed in CHO cells
# Assay type: cell-based
smiles,measurement,value
CN1C(=O)[C@@H](NC(=O)c2cc3ccccc3[nH]2)N=C(c2ccccc2)c2ccccc21,pKb,8.35
